pEC50: −log10 of the molar value.
Experiments:
IL-6 (THP-1 cells) = test: IL-6 inhibition in LPS-stimulated THP-1 cells (HTRF); assay type: cell-based; conditions: Homo sapiens; for pEC50: IL-6 in THP-1 cells, LPS 500 ng/mL, 22 hours; for inhibition at 10 µM: given where EC50 >10 μM, IL-6, THP-1 cells, LPS, read-out: percent inhibition at 10 μM
Summary of the method: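 THP-1 cells, serum-reduced (1% FBS) for 24 h, were preincubated with compound (10-point 1:3 series from 10 μM, 0.1% DMSO) for 2 h, then stimulated with 500 ng/mL LPS for 22 h at 37° C. IL-6 was read by HTRF (665/620 nm ratio) and normalized to DMSO. EC50 from four-parameter fit; % inhibition at 10 μM given if EC50 >10 μM.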

[1] = system: primary human mesenchymal stem cells (hMSCs); test: Chondrogenesis induction in hMSCs (nodule count); assay type: cell-based; conditions: 144 h, hMSC chondrogenesis, 6 days; for Emax: relative to TGF-β3 (10 ng/mL) positive control, read-out: Max. Activity as % TGF-β3 activity; for EC50: concentration required to induce 50% of TGF-β3 level, read-out: Conc. (nM) of 50% TGF-β3 activity
Description: Representative compounds were screened using primary human mesenchymal stem cells (hMSCs) to determine their ability to induce chondrogenesis (process by which cartilage is developed).
Primary human mesenchymal stem cells (hMSCs) were purchased from Lonza (Walkersville, Md.) and expanded in Mesenchymal Stem Cell Growth Media (Lonza). Cells between passage 3 and 6 were used for the experiments.
Each compound was dissolved in DMSO as a 10 mM stock and used to prepare compound source plates. Serial dilution (1:3, 6-point dose-response curves from 2700 nM to 10 nM) and compound transfer was performed using the ECHO 550 (Labcyte, Sunnyvale, Calif.) into 96-well clear bottom assay plates (Greiner Bio-One) with appropriate DMSO backfill for a final DMSO concentration of 0.03%. hMSCs were plated at 20,000 cells/well in 250 μL/well Incomplete Chondrogenic Induction Medium (Lonza; DMEM, dexamethasone, ascorbate, insulin-transferrin-selenium [ITS supplement], gentamycin-amphotericin [GA-1000], sodium pyruvate, proline and L-glutamine). TGF-β3 (10 ng/mL) was used as a positive control for differentiation while negative control wells were treated with 75 nL DMSO for normalization and calculating EC50 values. Cells were incubated at 37° C. and 5% CO2 for 6 days. To image chondrogenic nodules, the cells were fixed using 4% formaldehyde (Electron Microscopy Sciences), and stained with 2 μg/mL Rhodamine B (Sigma-Aldrich) and 20 μM Nile Red (Sigma-Aldrich) [Johnson K., et. al, A Stem Cell-Based Approach to Cartilage Repair, Science, (2012), 336(6082), 717-721]. The nodules imaged (4 images per well at 4× magnification) by excitation at 531 nm and emission at 625 nm and quantified using the CellInsight CX5 (Thermo Scientific). Number of nodules in each well was normalized to the average of 3 DMSO treated wells on the same plate using Excel (Microsoft Inc.). The normalized averages (fold change over DMSO) of 3 replicate wells for each compound concentration were calculated. Due to solubility limitations of some of the compounds, curve fitting was incomplete leading to inaccurate EC50 determinations.
Using TGF-β3 as a positive control, the concentration of representative compounds required to induce 50% levels of chondrogenesis is reported. In addition, the maximum activity of each compound and the respective dose that each compound reached maximum chondrogenesis activity is reported.

Row | Compound | pEC50 (IL-6 (THP-1 cells)) | inhibition at 10 µM (IL-6 (THP-1 cells)) [%] | Emax [1] [%] | EC50 [1] [nM]
1 | CN(C)CCNc1cc(F)cc(-c2ccnc3[nH]c(-c4n[nH]c5cnc(-c6cncnc6)cc45)cc23)c1 [Compound 475, N^1-(3-Fluoro-5-(2-(5-(pyrimidin-5-yl)-1H-pyrazolo[3,4-c]pyridin-3-yl)-1H-pyrrolo[2,3-b]pyridin-4-yl)phenyl)-N^2,N^2-dimethylethane-1,2-diamine] | < 5.00 | 6.3 | 17 | 
2 | c1cncc(-c2ccnc3[nH]c(-c4n[nH]c5cnc(-c6cncc(CN7CCCC7)c6)cc45)cc23)c1 [Compound 98, 3-(4-(Pyridin-3-yl)-1H-pyrrolo[2,3-b]pyridin-2-yl)-5-(5-(pyrrolidin-1-ylmethyl)pyridin-3-yl)-1H-pyrazolo[3,4-c]pyridine] | < 5.00 | 27.7 | 17 | 
3 | CC(C)Nc1cncc(-c2cc3c(-c4cc5c(-c6cccnc6)ccnc5[nH]4)n[nH]c3cn2)c1 [Compound 96, N-Isopropyl-5-(3-(4-(pyridin-3-yl)-1H-pyrrolo[2,3-b]pyridin-2-yl)-1H-pyrazolo[3,4-c]pyridin-5-yl)pyridin-3-amine] | < 5.00 | 23.5 | 77 | 10
4 | O=C(Nc1cncc(-c2cc3c(-c4cc5c(-c6cccc(F)c6)ccnc5[nH]4)n[nH]c3cn2)c1)C1CC1 [Compound 20, N-(5-(3-(4-(3-Fluorophenyl)-1H-pyrrolo[2,3-b]pyridin-2-yl)-1H-pyrazolo [3,4-c]pyridin-5-yl)pyridin-3-yl)cyclopropanecarboxamide] | < 5.00 | 42.8 | 22 | 
5 | Fc1cccc(-c2ccnc3[nH]c(-c4n[nH]c5cnc(-c6cncnc6)cc45)cc23)c1 [Compound 27, 3-(4-(3-Fluorophenyl)-1H-pyrrolo[2,3-b]pyridin-2-yl)-5-(pyrimidin-5-yl)-1H-pyrazolo[3,4-c]pyridine] | < 5.00 | 43.9 | 41 | 
6 | Fc1cccc(-c2ccnc3[nH]c(-c4n[nH]c5cnc(-c6cncc(CN7CCCC7)c6)cc45)cc23)c1 [Compound 14, 3-(4-(3-Fluorophenyl)-1H-pyrrolo[2,3-b]pyridin-2-yl)-5-(5-(pyrrolidin-1-ylmethyl)pyridin-3-yl)-1H-pyrazolo[3,4-c]pyridine] | < 5.00 | 21.6 | 68 | 100
7 | CN1CCN(c2ccnc3[nH]c(-c4n[nH]c5cnc(-c6cncc(CNCC7CCCC7)c6)cc45)cc23)CC1 [Compound 249, 1-Cyclopentyl-N-((5-(3-(4-(4-methylpiperazin-1-yl)-1H-pyrrolo[2,3-b]pyridin-2-yl)-1H-pyrazolo[3,4-c]pyridin-5-yl)pyridin-3-yl)methyl)methanamine] | 5.10 |  | 150 | 300
8 | CCCC(=O)Nc1cncc(-c2cc3c(-c4cc5c(-c6cc(F)cc(NCCN(C)C)c6)ccnc5[nH]4)n[nH]c3cn2)c1 [Compound 465, N-(5-(3-(4-(3-((2-(Dimethylamino)ethyl)amino)-5-fluorophenyl)-1H-pyrrolo [2,3-b]pyridin-2-yl)-1H-pyrazolo[3,4-c]pyridin-5-yl)pyridin-3-yl)butyramide] | < 5.00 | 21.5 | 162 | 10
9 | CN1CCN(c2ccnc3[nH]c(-c4n[nH]c5cnc(-c6cn[nH]c6)cc45)cc23)CC1 [Compound 635, 3-(4-(4-Methylpiperazin-1-yl)-1H-pyrrolo[2,3-b]pyridin-2-yl)-5-(1H-pyrazol-4-yl)-1H-pyrazolo[3,4-c]pyridine] | < 5.00 | 10.9 | 63 | 10
10 | CN1CCN(c2ccnc3[nH]c(-c4n[nH]c5cnc(-c6cncc(N(C)C)c6)cc45)cc23)CC1 [Compound 231, N,N-Dimethyl-5-(3-(4-(4-methylpiperazin-1-yl)-1H-pyrrolo[2,3-b]pyridin-2-yl)-1H-pyrazolo[3,4-c]pyridin-5-yl)pyridin-3-amine] | < 5.00 | 3.7 | 14 | 
11 | Nc1cncc(-c2cc3c(-c4cc5c(-c6ccccc6F)ccnc5[nH]4)n[nH]c3cn2)c1 [Compound 59, 5-(3-(4-(2-Fluorophenyl)-1H-pyrrolo[2,3-b]pyridin-2-yl)-1H-pyrazolo[3,4-c]pyridin-5-yl)pyridin-3-amine] | < 5.00 | 37.3 | 32 | 
12 | CCNCc1cncc(-c2cc3c(-c4cc5c(-c6cccnc6)ccnc5[nH]4)n[nH]c3cn2)c1 [Compound 90, N-((5-(3-(4-(Pyridin-3-yl)-1H-pyrrolo[2,3-b]pyridin-2-yl)-1H-pyrazolo[3,4-c]pyridin-5-yl)pyridin-3-yl)methyl)ethanamine] | < 5.00 | 33.9 | 49 | 
13 | FC1(F)CCN(Cc2cncc(-c3cc4c(-c5cc6cccnc6[nH]5)n[nH]c4cn3)c2)C1 [Compound 278, 5-(5-((3,3-Difluoropyrrolidin-1-yl)methyl)pyridin-3-yl)-3-(1H-pyrrolo[2,3-b]pyridin-2-yl)-1H-pyrazolo[3,4-c]pyridine] | 7.54 |  | 45 | 
14 | O=C(Nc1cncc(-c2cc3c(-c4cc5c(-c6cccnc6)ccnc5[nH]4)n[nH]c3cn2)c1)c1ccccc1 [Compound 95, N-(5-(3-(4-(Pyridin-3-yl)-1H-pyrrolo[2,3-b]pyridin-2-yl)-1H-pyrazolo[3,4-c]pyridin-5-yl)pyridin-3-yl)benzamide] | < 5.00 | 31.8 | 64 | 10
15 | CC(C)CC(=O)Nc1cncc(-c2cc3c(-c4cc5cccnc5[nH]4)n[nH]c3cn2)c1 [Compound 254, N-(5-(3-(1H-Pyrrolo[2,3-b]pyridin-2-yl)-1H-pyrazolo[3,4-c]pyridin-5-yl)pyridin-3-yl)-3-methylbutanamide] | 6.28 |  | 40 | 
16 | CCNCc1cncc(-c2cc3c(-c4cc5c(-c6ccccc6F)ccnc5[nH]4)n[nH]c3cn2)c1 [Compound 62, N-((5-(3-(4-(2-Fluorophenyl)-1H-pyrrolo[2,3-b]pyridin-2-yl)-1H-pyrazolo [3,4-c]pyridin-5-yl)pyridin-3-yl)methyl)ethanamine] | < 5.00 | 24.8 | 270 | 30
17 | CCC(=O)Nc1cncc(-c2cc3c(-c4cc5c(-c6cccc(F)c6)ccnc5[nH]4)n[nH]c3cn2)c1 [Compound 1, N-(5-(3-(4-(3-Fluorophenyl)-1H-pyrrolo[2,3-b]pyridin-2-yl)-1H-pyrazolo [3,4-c]pyridin-5-yl)pyridin-3-yl)propionamide] | < 5.00 | 23.6 |  | 
18 | O=C(Nc1cncc(-c2cc3c(-c4cc5cccnc5[nH]4)n[nH]c3cn2)c1)c1ccccc1 [Compound 263, N-(5-(3-(1H-Pyrrolo[2,3-b]pyridin-2-yl)-1H-pyrazolo[3,4-c]pyridin-5-yl)pyridin-3-yl)benzamide] | < 5.00 | 39.2 |  | 
19 | O=C(Nc1cncc(-c2cc3c(-c4cc5c(-c6ccccc6F)ccnc5[nH]4)n[nH]c3cn2)c1)C1CCCCC1 [Compound 79, N-(5-(3-(4-(2-Fluorophenyl)-1H-pyrrolo[2,3-b]pyridin-2-yl)-1H-pyrazolo [3,4-c]pyridin-5-yl)pyridin-3-yl)cyclohexanecarboxamide] | < 5.00 | 5.9 |  | 
20 | O=C(Cc1ccccc1)Nc1cncc(-c2cc3c(-c4cc5c(-c6ccccc6F)ccnc5[nH]4)n[nH]c3cn2)c1 [Compound 66, N-(5-(3-(4-(2-Fluorophenyl)-1H-pyrrolo[2,3-b]pyridin-2-yl)-1H-pyrazolo [3,4-c]pyridin-5-yl)pyridin-3-yl)-2-phenylacetamide] | < 5.00 | 35.8 |  | 
21 | O=C(Nc1cncc(-c2cc3c(-c4cc5c(-c6ccncc6)ccnc5[nH]4)n[nH]c3cn2)c1)C1CCC1 [Compound 133, N-(5-(3-(4-(Pyridin-4-yl)-1H-pyrrolo[2,3-b]pyridin-2-yl)-1H-pyrazolo[3,4-c]pyridin-5-yl)pyridin-3-yl)cyclobutanecarboxamide] | < 5.00 | 11.9 |  | 

— patent US10285982B2, “3-(1H-pyrrolo[2,3-B]pyridin-2-yl)-1H-pyrazolo[3,4-C]pyridines and therapeutic uses thereof” (Samumed, LLC, priority 2015, dated 2019)
